Key:
[1] = biological target: T1, NR1-1a/NR2B NMDA receptor (Rattus norvegicus, UniProt P35439+Q00960); test: Patch-clamp inhibition of glutamate-evoked currents at recombinant NMDA receptors in transfected HEK293 cells; format: cell-based; settings: for IC50: calculated from relative steroid-induced inhibition, Hill's coefficient 1.2, read-out: IC50
T1 construct: expressed in transfected cells; host or cells: HEK293 cells (ATCC CRL1573)
Outline: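 HEK293 cells co-transfected with rat NR1-1a/NR2B plus GFP were whole-cell patch-clamped 16-40 h post-transfection at −60 mV. Currents were evoked by 1 mmol·l^−1 glutamate with 10 μmol·l^−1 glycine in ECS pH 7.3, and steroid was co-applied in DMSO via fast perfusion. IC50 came from relative inhibition.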

[2] = system: laboratory mice, strain CD-1; test: Forced swimming test (antidepressant effect); format: in vivo; on Forced Swimming Test Reduced Floating: key: −: the desired effect was not observed; −/+: the desired effect was insufficient; +: the desired effect was observed
Description: In the Experimental Part 1 were used adults (30-35 g) male laboratory mice, strain CD-1 from Velaz facility, Czech Republic. Mice were housed in plastic boxes with a 12-hour light cycle (lights on at 7:00 pm). Mice had free access to food and water.
This assay was used to monitor the antidepressant effect. Animals float 6 minutes in acrylic cylinder in water at 24° C. A period of immobility is evaluated. The reduction is a manifestation of anti-depressant properties of drugs.

[3] = system: laboratory mice, strain CD-1; test: Open field test (locomotor activity, sedative effect); on Open Field Test No Evidence of Hyperlocomotion: key: −: the desired effect was not observed; −/+: the desired effect was insufficient; +: the desired effect was observed; on Sedative Effect The Rapid Onset of Sedation at a Dose of 100 mg/kg: key: −: the desired effect was not observed; −/+: the desired effect was insufficient; +: the desired effect was observed; format: in vivo; settings: for pathway in open field: dose 10 and 100 mg/kg, vs intact mice; for locomotor activity over time: higher dose of 10 resp. 100 mg/kg; for Sedative Effect The Rapid Onset of Sedation at a Dose of 100 mg/kg / Open Field Test No Evidence of Hyperlocomotion: intraperitoneally; for Open Field Test No Evidence of Hyperlocomotion: 0.1-100 mg/kg; for hyperlocomotion in open field: lower doses (below 10 mg/kg)
Outline: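 Adult male CD-1 mice (30-35 g) received steroids at 0.1-100 mg/kg i.p. in cyclodextrin/citrate vehicle (pH 7.4) before the open-field test. Intact and vehicle controls and MK-801 0.3 mg/kg were included. Total track and ten-minute segments gave locomotor activity, onset latency and time course, with tremor, ataxia, sedation or anesthesia noted.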

T1 sequence (Q00960 27-1482, other chains not shown): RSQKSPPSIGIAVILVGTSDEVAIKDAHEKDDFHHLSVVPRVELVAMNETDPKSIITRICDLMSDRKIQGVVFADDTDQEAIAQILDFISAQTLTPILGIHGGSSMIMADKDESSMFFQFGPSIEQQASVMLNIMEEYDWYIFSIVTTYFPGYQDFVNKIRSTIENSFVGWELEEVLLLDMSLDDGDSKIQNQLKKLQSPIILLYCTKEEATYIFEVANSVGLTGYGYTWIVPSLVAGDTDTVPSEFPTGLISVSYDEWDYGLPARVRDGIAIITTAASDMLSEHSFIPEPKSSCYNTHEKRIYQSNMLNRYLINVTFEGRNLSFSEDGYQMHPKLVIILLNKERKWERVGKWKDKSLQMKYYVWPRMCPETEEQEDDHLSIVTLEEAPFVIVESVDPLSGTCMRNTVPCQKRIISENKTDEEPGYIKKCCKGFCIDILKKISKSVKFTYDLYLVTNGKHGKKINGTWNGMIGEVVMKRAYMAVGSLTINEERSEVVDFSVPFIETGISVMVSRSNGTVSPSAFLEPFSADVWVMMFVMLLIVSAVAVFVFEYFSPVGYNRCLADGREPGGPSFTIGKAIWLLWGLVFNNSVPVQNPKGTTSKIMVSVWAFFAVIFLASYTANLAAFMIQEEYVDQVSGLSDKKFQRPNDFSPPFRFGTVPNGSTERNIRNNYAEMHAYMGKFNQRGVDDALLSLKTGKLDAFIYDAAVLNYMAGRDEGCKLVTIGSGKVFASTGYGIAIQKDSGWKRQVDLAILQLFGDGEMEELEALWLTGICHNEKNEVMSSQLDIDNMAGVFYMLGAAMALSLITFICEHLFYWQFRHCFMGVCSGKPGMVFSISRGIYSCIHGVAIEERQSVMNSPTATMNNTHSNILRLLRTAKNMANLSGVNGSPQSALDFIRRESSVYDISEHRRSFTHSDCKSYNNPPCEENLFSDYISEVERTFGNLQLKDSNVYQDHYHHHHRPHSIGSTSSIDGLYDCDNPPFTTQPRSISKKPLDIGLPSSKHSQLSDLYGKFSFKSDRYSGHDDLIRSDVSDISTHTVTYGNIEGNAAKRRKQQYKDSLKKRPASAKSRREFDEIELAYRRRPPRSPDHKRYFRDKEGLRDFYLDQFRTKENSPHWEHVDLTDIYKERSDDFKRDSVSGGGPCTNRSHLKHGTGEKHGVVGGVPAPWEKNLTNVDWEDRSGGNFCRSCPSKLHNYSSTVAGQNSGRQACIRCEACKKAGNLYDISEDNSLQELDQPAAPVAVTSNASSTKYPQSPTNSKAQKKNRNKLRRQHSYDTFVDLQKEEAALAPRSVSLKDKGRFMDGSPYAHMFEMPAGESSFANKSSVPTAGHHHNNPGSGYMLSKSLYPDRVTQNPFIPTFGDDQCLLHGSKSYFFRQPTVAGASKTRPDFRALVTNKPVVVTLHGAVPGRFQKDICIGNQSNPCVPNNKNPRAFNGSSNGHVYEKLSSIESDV

Compound	inhibition at 10 µM ([1]; HEK293, steroid concentration 10 μmol·l^−1, 1 mmol·l^−1 glutamate, −60 mV, read-out: Mean % change ± SD)	IC50 [1]	Forced Swimming Test Reduced Floating [2]	pathway in open field [3]	locomotor activity over time [3]	Sedative Effect The Rapid Onset of Sedation at a Dose of 100 mg/kg [3]	inhibition at 1 µM ([1]; HEK293, read-out: Mean % change ± SD)	flotation (immobility) ([2]; 1 mg/kg)	latency to the first flotation ([2]; 1 mg/kg)	signs of sleepiness and overall sedation ([3]; 10 resp. 100 mg/kg, between the 20th and 40th minute)	Open Field Test No Evidence of Hyperlocomotion [3]	hyperlocomotion in open field [3]	Mean % change ± SD ([1]; steroid concentration 100 μmol·l^−1, 1 mmol·l^−1 glutamate, −60 mV)
C[C@@]12CCCCC1[C@@H]1CC[C@@H]3C[C@H](OC(=O)[C@@H](N)CCC(=O)O)CC[C@]3(C)[C@H]1CC2 (stereo partly drawn) [Compound 106, (4S)-4-Amino-5-(((2R,4aS,4bS,6aS,10bS,12aR)-4a,6a-dimethyloctadekahydrochrysen-2-yl)oxy)-5-oxopentanoic acid]	48.7 ± 6.3%	10.6 µM	−	significant reduction	significant decrease	−							
C[C@@]12CCC[C@H]1[C@@H]1CC[C@@H]3C[C@H](OC(=O)[C@@H](N)CCC(=O)O)CC[C@]3(C)[C@H]1CC2 [Compound 130, (4S)-4-Amino-5-(((3R,5R,8S,9S,10S,13S,14S)-10,13-dimethylhexadecahydro-1H-cyclopenta[a]phenanthren-3-yl)oxy)-5-oxopentanoic acid]		1.6 µM	+	significant reduction	significant decrease	+	36.7 ± 7%	significant decrease	longer latency	most pronounced	+	not (unlike groups with dizocilpine) observed hyperlocomotion	
Pyridinium (3S,3aS,5bR,7aR,9R,11aS,11bS,13aR)-3,11a-dimethylhexadecahydro-1H,3H-naphtho[2′,1′:4,5]indeno[1,7a-c]furan-9-yl 9-sulfate [Compound 124]		51 µM	−	significant reduction	significant decrease	−					+	not (unlike groups with dizocilpine) observed hyperlocomotion	69.1 ± 4.0%

— patent US10017535B2, “Amphiphilic compounds with neuroprotective properties” (USTAV ORGANICKE CHEMIE A BIOCHEMIE AV CR, v.v.i., priority 2014, dated 2018)
